From the CheMixHub viscosity set

Assay: xn = mol fraction of the nth substance listed
Details: 100 kPa

CC(C)Cc1ccc(C(C)C(=O)O)cc1 (centres undefined) + CCCO
viscosity [mPa·s]
Details | x1 = 0.00242 | x1 = 0.00365 | x1 = 0.00483 | x1 = 0.006021 | x1 = 0.007225 | x1 = 0.0096 | x1 = 0.012
298.15 K | 1.95 | 1.956 | 1.963 | 1.971 | 1.979 | 1.995 | 2.014
308.15 K | 1.529 | 1.538 | 1.548 | 1.56 | 1.575 | 1.605 | 1.639
